Measurements reported in the NIST ThermoML archive (doi:10.1021/je700546r).
Several values for one entry are separate records, joined by “and”; a condition that tells them apart may be missing. Equal entries are not always repeated.

Assay: molar heat capacity at saturation pressure
Conditions: Small (less than 1 g) adiabatic calorimetry

ON=C1CCCCC1 [cyclohexanone oxime]
Conditions | molar heat capacity
224.01 K, Crystal 3 | 136.62 J/K/mol
224.62 K, Crystal 3 | 137.24 J/K/mol
224.76 K, Crystal 3 | 137.52 J/K/mol
225.92 K, Crystal 3 | 138.42 J/K/mol
226.48 K, Crystal 3 | 138.92 J/K/mol
226.5 K, Crystal 3 | 139.12 J/K/mol
227.85 K, Crystal 3 | 140.09 J/K/mol
228.24 K, Crystal 3 | 140.6 J/K/mol
228.33 K, Crystal 3 | 140.45 J/K/mol
229.78 K, Crystal 3 | 141.6 J/K/mol
229.98 K, Crystal 3 | 141.91 J/K/mol
230.18 K, Crystal 3 | 141.86 J/K/mol
231.71 K, Crystal 3 | 143.03 J/K/mol and 143.15 J/K/mol
232.03 K, Crystal 3 | 143.15 J/K/mol
233.43 K, Crystal 3 | 144.26 J/K/mol
233.64 K, Crystal 3 | 144.32 J/K/mol
233.87 K, Crystal 3 | 144.33 J/K/mol
235.14 K, Crystal 3 | 145.41 J/K/mol
235.57 K, Crystal 3 | 145.51 J/K/mol
235.71 K, Crystal 3 | 145.65 J/K/mol
236.85 K, Crystal 3 | 146.62 J/K/mol
237.5 K, Crystal 3 | 146.68 J/K/mol
237.54 K, Crystal 3 | 146.94 J/K/mol
238.56 K, Crystal 3 | 147.84 J/K/mol
239.36 K, Crystal 3 | 148.9 J/K/mol
239.43 K, Crystal 3 | 148.81 J/K/mol
239.79 K, Crystal 3 | 150.04 J/K/mol
241.18 K, Crystal 3 | 153.75 J/K/mol
241.36 K, Crystal 3 | 153.6 J/K/mol
241.48 K, Crystal 3 | 154.07 J/K/mol
242.99 K, Crystal 2 | 148.41 J/K/mol
243.3 K, Crystal 2 | 148.43 J/K/mol
243.42 K, Crystal 2 | 148.52 J/K/mol
244.82 K, Crystal 2 | 149.34 J/K/mol
245.25 K, Crystal 2 | 149.53 J/K/mol
245.37 K, Crystal 2 | 149.83 J/K/mol
246.66 K, Crystal 2 | 150.69 J/K/mol
247.07 K, Crystal 2 | 151.16 J/K/mol
247.18 K, Crystal 2 | 150.98 J/K/mol
248.48 K, Crystal 2 | 152.19 J/K/mol
248.78 K, Crystal 2 | 152.63 J/K/mol
250.29 K, Crystal 2 | 153.82 J/K/mol
250.48 K, Crystal 2 | 154.01 J/K/mol
252.11 K, Crystal 2 | 155.49 J/K/mol
252.36 K, Crystal 2 | 155.81 J/K/mol
253.91 K, Crystal 2 | 157.22 J/K/mol
254.12 K, Crystal 2 | 157.42 J/K/mol
255.71 K, Crystal 2 | 159 J/K/mol
255.8 K, Crystal 2 | 159.11 J/K/mol
257.47 K, Crystal 2 | 160.79 J/K/mol
257.5 K, Crystal 2 | 160.82 J/K/mol
259.14 K, Crystal 2 | 162.49 J/K/mol
259.28 K, Crystal 2 | 162.64 J/K/mol
260.8 K, Crystal 2 | 164.29 J/K/mol
261.05 K, Crystal 2 | 164.53 J/K/mol
262.46 K, Crystal 2 | 166.09 J/K/mol
262.82 K, Crystal 2 | 166.41 J/K/mol
264.11 K, Crystal 2 | 167.84 J/K/mol
264.58 K, Crystal 2 | 168.33 J/K/mol
265.75 K, Crystal 2 | 169.58 J/K/mol
266.34 K, Crystal 2 | 170.21 J/K/mol
267.39 K, Crystal 2 | 171.43 J/K/mol
268.08 K, Crystal 2 | 172.13 J/K/mol
269.02 K, Crystal 2 | 173.27 J/K/mol
269.82 K, Crystal 2 | 174.08 J/K/mol
270.64 K, Crystal 2 | 175.04 J/K/mol
271.56 K, Crystal 2 | 175.95 J/K/mol
272.26 K, Crystal 2 | 176.79 J/K/mol
273.28 K, Crystal 2 | 177.73 J/K/mol
273.87 K, Crystal 2 | 178.52 J/K/mol
275.02 K, Crystal 2 | 179.53 J/K/mol
275.47 K, Crystal 2 | 180.26 J/K/mol
276.74 K, Crystal 2 | 181.37 J/K/mol
277.08 K, Crystal 2 | 181.92 J/K/mol
278.45 K, Crystal 2 | 183.01 J/K/mol
278.67 K, Crystal 2 | 183.43 J/K/mol
280.15 K, Crystal 2 | 184.62 J/K/mol
280.26 K, Crystal 2 | 185.03 J/K/mol
281.85 K, Crystal 2 | 186.12 J/K/mol and 186.38 J/K/mol
283.43 K, Crystal 2 | 187.69 J/K/mol
283.54 K, Crystal 2 | 187.5 J/K/mol
285.01 K, Crystal 2 | 188.93 J/K/mol
285.24 K, Crystal 2 | 188.79 J/K/mol
286.58 K, Crystal 2 | 189.97 J/K/mol
286.93 K, Crystal 2 | 189.9 J/K/mol
288.15 K, Crystal 2 | 191 J/K/mol
288.61 K, Crystal 2 | 190.97 J/K/mol
289.72 K, Crystal 2 | 191.92 J/K/mol
290.29 K, Crystal 2 | 191.83 J/K/mol
291.28 K, Crystal 2 | 192.69 J/K/mol
291.97 K, Crystal 2 | 192.78 J/K/mol
292.14 K, Crystal 2 | 192.79 J/K/mol
292.85 K, Crystal 2 | 193.59 J/K/mol
293.65 K, Crystal 2 | 193.64 J/K/mol
293.7 K, Crystal 2 | 193.66 J/K/mol
294.41 K, Crystal 2 | 194.19 J/K/mol
295.26 K, Crystal 2 | 194.41 J/K/mol
295.32 K, Crystal 2 | 194.51 J/K/mol
295.97 K, Crystal 2 | 194.99 J/K/mol
296.81 K, Crystal 2 | 195.24 J/K/mol
297 K, Crystal 2 | 195.34 J/K/mol
297.53 K, Crystal 2 | 195.76 J/K/mol
298.36 K, Crystal 2 | 196.04 J/K/mol
298.66 K, Crystal 2 | 196.34 J/K/mol
299.09 K, Crystal 2 | 196.66 J/K/mol
299.91 K, Crystal 2 | 197.34 J/K/mol
300.33 K, Crystal 2 | 197.85 J/K/mol
300.64 K, Crystal 2 | 198.3 J/K/mol
301.45 K, Crystal 2 | 198.75 J/K/mol
301.99 K, Crystal 1 | 196.75 J/K/mol
302.19 K, Crystal 1 | 195.88 J/K/mol
